# Results published in ChEMBL document CHEMBL4330132, “5-Keto-3-cyano-2,4-diaminothiophenes as selective maternal embryonic leucine zipper kinase inhibitors” (Bioorg Med Chem Lett, 2019).
# How the values were obtained:
# [1] = biological target: Myosin light chain kinase, smooth muscle (Homo sapiens) (UniProt Q15746); assay: Binding affinity to wild-type human full length MYLK (M854 to E1845 residues) expressed in mammalian expression system assessed as residual binding level at 1 uM by Kinomescan method relative to control
# [2] = biological target: Tyrosine-protein kinase ZAP-70 (Homo sapiens) (UniProt P43403); assay: Binding affinity to wild-type human partial length ZAP70 (D20 to G299 residues) expressed in mammalian expression system assessed as residual binding level at 1 uM by Kinomescan method relative to control
# [3] = biological target: Serine/threonine-protein kinase SIK2 (Homo sapiens) (UniProt Q9H0K1); assay: Binding affinity to wild-type human full length SIK2 (M1 to N926 residues) expressed in bacterial expression system assessed as residual binding level at 1 uM by Kinomescan method relative to control
# [4] = biological target: Ribosomal protein S6 kinase alpha-6 (Homo sapiens) (UniProt Q9UK32); assay: Binding affinity to wild-type human partial length C-terminal RSK4 kinase domain 2 (I401 to Y711 residues) expressed in bacterial expression system assessed as residual binding level at 1 uM by Kinomescan method relative to control
# Sequence of Ribosomal protein S6 kinase alpha-6 (Homo sapiens) (Q9UK32 whole entry, the tested form may be a part): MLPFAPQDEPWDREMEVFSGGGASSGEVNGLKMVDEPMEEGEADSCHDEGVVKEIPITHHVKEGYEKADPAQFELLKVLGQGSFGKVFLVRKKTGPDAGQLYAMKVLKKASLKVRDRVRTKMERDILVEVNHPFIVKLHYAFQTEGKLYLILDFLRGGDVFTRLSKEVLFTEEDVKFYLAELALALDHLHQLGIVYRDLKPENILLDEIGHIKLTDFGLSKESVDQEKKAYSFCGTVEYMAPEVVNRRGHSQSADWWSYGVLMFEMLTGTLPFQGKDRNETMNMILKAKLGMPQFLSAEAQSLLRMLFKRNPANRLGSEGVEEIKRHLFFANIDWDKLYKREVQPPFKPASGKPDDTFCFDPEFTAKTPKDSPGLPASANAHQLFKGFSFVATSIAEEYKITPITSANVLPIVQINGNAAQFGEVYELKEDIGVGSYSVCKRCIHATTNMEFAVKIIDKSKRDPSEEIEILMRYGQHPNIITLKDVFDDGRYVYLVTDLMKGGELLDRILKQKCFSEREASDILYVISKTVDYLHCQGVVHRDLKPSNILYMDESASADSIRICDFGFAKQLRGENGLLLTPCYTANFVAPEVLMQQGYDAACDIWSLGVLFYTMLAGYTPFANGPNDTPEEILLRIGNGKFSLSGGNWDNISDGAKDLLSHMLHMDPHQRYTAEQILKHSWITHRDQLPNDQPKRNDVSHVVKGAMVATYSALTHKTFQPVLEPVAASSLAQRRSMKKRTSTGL
# [5] = biological target: Interferon-induced, double-stranded RNA-activated protein kinase (Homo sapiens) (UniProt P19525); assay: Binding affinity to wild-type human partial length PRKR (F247 to C551 residues) expressed in bacterial expression system assessed as residual binding level at 1 uM by Kinomescan method relative to control
# [6] = biological target: Calcium/calmodulin-dependent protein kinase type II subunit beta (Homo sapiens) (UniProt Q13554); assay: Binding affinity to wild-type human partial length CAMK2B (M1 to Q380 residues) expressed in bacterial expression system assessed as residual binding level at 1 uM by Kinomescan method relative to control
# Sequence of Calcium/calmodulin-dependent protein kinase type II subunit beta (Homo sapiens) (Q13554 whole entry, the tested form may be a part): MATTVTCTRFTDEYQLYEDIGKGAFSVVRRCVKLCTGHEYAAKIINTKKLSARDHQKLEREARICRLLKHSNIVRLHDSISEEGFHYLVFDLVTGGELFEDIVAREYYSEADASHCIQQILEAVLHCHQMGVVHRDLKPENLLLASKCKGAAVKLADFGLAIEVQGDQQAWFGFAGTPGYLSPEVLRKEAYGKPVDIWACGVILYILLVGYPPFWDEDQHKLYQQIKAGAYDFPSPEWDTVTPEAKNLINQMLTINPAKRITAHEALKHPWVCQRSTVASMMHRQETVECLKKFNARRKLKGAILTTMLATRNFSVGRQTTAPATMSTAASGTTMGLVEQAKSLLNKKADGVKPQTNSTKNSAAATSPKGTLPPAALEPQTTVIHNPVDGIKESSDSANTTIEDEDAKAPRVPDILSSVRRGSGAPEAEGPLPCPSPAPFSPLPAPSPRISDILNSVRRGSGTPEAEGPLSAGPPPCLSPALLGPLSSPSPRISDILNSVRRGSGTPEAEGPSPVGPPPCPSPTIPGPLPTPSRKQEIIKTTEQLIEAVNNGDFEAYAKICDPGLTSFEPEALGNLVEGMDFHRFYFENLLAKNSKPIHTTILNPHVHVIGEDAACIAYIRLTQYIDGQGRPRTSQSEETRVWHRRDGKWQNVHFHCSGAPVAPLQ
# [7] = biological target: Serine/threonine-protein kinase STK11 (Homo sapiens) (UniProt Q15831); assay: Binding affinity to wild-type human full length LKB1 (M1 to Q433 residues) expressed in bacterial expression system assessed as residual binding level at 1 uM by Kinomescan method relative to control
# [8] = biological target: Serine/threonine-protein kinase 25 (Homo sapiens) (UniProt O00506); assay: Binding affinity to wild-type human partial length YSK1 (V14 to H295 residues) expressed in bacterial expression system assessed as residual binding level at 1 uM by Kinomescan method relative to control
# [9] = biological target: ALK tyrosine kinase receptor (Homo sapiens) (UniProt Q9UM73); assay: Binding affinity to wild-type human partial length ALK (I1088 to E1409 residues) expressed in mammalian expression system assessed as residual binding level at 1 uM by Kinomescan method relative to control
# Sequence of ALK tyrosine kinase receptor (Homo sapiens) (Q9UM73 19-1620 limits assumed): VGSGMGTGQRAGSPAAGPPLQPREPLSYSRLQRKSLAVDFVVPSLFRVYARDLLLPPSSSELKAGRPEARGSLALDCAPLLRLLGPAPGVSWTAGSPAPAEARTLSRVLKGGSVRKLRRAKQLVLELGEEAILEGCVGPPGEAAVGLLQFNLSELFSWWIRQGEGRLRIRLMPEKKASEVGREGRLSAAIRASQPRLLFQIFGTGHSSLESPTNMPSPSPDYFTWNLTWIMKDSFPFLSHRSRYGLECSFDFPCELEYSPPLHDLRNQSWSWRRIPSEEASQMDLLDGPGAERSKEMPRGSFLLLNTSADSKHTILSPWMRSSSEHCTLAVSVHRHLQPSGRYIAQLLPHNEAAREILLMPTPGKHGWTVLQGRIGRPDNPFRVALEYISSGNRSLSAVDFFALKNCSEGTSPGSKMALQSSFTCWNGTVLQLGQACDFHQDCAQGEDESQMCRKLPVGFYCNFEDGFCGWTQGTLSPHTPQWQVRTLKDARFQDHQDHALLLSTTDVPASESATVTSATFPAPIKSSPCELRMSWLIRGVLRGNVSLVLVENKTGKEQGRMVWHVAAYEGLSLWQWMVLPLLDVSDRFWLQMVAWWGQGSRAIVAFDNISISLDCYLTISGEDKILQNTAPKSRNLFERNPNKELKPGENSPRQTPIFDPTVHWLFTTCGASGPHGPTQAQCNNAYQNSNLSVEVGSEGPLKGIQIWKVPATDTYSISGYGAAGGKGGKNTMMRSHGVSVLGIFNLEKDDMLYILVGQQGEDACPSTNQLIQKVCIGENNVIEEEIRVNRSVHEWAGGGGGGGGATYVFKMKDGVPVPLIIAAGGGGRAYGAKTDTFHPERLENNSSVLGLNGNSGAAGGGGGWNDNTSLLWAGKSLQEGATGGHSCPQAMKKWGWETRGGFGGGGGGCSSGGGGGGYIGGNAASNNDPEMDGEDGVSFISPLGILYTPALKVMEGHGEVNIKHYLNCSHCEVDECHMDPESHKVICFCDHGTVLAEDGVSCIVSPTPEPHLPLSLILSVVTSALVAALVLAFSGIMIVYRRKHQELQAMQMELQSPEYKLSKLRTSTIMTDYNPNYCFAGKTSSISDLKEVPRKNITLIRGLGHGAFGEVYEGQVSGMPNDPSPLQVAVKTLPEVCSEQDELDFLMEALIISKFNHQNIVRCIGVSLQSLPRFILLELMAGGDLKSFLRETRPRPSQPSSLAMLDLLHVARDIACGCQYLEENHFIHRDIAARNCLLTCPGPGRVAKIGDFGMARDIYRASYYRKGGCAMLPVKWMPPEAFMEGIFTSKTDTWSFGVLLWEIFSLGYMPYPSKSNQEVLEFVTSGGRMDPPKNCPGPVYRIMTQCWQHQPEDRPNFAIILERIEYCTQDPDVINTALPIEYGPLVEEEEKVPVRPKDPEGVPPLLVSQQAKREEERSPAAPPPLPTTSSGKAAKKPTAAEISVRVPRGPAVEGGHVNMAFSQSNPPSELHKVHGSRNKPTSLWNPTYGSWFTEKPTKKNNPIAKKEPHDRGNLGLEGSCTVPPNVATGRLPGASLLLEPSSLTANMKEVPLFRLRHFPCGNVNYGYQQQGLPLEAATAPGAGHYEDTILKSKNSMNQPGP
# [10] = biological target: NUAK family SNF1-like kinase 2 (Homo sapiens) (UniProt Q9H093); assay: Binding affinity to wild-type human partial length SNARK (P22 to A333 residues) expressed in mammalian expression system assessed as residual binding level at 1 uM by Kinomescan method relative to control
# [11] = biological target: Cyclin-dependent kinase-like 1 (Homo sapiens) (UniProt Q00532); assay: Binding affinity to wild-type human full length CDKL1 (M1 to I358 residues) expressed in mammalian expression system assessed as residual binding level at 1 uM by Kinomescan method relative to control
# [12] = biological target: Serine/threonine-protein kinase PLK2 (Homo sapiens) (UniProt Q9NYY3); assay: Binding affinity to wild-type human partial length PLK2 (H58 to F354 residues) expressed in mammalian expression system assessed as residual binding level at 1 uM by Kinomescan method relative to control
# [13] = biological target: Dual specificity protein kinase CLK2 (Homo sapiens) (UniProt P49760); assay: Binding affinity to wild-type human partial length CLK2 (D144 to R498 residues) expressed in bacterial expression system assessed as residual binding level at 1 uM by Kinomescan method relative to control
# [14] = biological target: Wee1-like protein kinase 2 (Homo sapiens) (UniProt P0C1S8); assay: Binding affinity to wild-type human partial length WEE2 (M204 to K492 residues) expressed in bacterial expression system assessed as residual binding level at 1 uM by Kinomescan method relative to control
# [15] = biological target: Serine/threonine-protein kinase Nek9 (Homo sapiens) (UniProt Q8TD19); assay: Binding affinity to wild-type human partial length NEK9 (P32 to R328 residues) expressed in bacterial expression system assessed as residual binding level at 1 uM by Kinomescan method relative to control
# [16] = biological target: Serine/threonine-protein kinase MARK2 (Homo sapiens) (UniProt Q7KZI7); assay: Binding affinity to wild-type human partial length MARK2 (M1 to R450 residues) expressed in bacterial expression system assessed as residual binding level at 1 uM by Kinomescan method relative to control
# Sequence of Serine/threonine-protein kinase MARK2 (Homo sapiens) (Q7KZI7 whole entry, the tested form may be a part): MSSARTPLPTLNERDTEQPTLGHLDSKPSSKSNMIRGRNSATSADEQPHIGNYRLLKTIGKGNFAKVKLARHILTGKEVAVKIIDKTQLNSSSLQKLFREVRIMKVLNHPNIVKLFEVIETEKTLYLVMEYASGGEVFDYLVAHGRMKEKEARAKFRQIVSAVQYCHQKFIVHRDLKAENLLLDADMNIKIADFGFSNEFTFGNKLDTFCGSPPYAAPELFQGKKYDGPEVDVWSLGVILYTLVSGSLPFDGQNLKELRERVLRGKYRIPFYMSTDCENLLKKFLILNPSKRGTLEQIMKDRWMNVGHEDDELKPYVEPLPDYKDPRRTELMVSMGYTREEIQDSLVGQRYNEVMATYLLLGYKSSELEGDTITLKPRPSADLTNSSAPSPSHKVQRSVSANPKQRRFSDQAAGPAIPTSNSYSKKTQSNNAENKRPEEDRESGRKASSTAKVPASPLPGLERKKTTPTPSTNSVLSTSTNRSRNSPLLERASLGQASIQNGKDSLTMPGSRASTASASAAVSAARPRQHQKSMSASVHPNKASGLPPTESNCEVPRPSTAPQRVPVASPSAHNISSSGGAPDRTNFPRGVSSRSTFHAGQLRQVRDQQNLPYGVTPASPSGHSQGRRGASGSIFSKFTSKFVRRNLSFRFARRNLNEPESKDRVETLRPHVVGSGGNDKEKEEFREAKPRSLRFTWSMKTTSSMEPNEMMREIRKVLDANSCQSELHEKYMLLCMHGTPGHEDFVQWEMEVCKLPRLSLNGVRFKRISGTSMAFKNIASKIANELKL
# [17] = biological target: Fibroblast growth factor receptor 4 (Homo sapiens) (UniProt P22455); assay: Binding affinity to wild-type human partial length FGFR4 (G402 to E713 residues) expressed in bacterial expression system assessed as residual binding level at 1 uM by Kinomescan method relative to control
# [18] = biological target: Homeodomain-interacting protein kinase 1 (Homo sapiens) (UniProt Q86Z02); assay: Binding affinity to wild-type human partial length HIPK1 (M146 to I555 residues) expressed in mammalian expression system assessed as residual binding level at 1 uM by Kinomescan method relative to control
# Sequence of Homeodomain-interacting protein kinase 1 (Homo sapiens) (Q86Z02 whole entry, looked up, the tested form may be a part): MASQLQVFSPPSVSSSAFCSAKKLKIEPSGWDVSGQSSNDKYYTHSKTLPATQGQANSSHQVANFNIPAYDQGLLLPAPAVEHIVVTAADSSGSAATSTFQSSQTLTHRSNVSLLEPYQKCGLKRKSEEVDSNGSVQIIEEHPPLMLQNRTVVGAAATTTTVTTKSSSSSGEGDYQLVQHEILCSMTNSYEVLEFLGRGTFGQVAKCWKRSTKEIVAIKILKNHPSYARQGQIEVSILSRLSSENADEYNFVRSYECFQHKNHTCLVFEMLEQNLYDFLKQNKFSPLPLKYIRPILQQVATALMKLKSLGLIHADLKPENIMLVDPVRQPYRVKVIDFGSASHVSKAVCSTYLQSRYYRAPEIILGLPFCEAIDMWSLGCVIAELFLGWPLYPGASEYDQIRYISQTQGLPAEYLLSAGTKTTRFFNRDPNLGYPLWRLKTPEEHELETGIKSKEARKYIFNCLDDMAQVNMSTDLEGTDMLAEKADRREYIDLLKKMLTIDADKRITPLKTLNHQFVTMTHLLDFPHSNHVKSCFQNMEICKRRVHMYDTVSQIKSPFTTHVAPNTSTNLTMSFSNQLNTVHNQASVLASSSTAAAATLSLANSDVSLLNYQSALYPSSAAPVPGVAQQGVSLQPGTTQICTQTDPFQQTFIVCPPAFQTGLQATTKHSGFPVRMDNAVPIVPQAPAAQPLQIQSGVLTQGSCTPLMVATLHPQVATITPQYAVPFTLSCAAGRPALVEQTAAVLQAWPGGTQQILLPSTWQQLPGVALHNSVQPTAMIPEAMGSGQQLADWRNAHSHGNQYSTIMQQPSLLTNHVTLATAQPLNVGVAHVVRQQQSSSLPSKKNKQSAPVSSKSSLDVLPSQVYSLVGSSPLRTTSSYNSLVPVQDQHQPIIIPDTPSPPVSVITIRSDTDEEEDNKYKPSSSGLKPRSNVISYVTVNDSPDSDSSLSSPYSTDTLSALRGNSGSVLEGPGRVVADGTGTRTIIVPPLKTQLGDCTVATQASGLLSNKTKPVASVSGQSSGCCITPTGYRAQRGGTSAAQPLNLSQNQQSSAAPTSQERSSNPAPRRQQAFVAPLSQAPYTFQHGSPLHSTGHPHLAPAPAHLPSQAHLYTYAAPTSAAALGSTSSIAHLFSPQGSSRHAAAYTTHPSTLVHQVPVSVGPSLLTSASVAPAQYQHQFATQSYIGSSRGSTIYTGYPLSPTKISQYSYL
# [19] = biological target: Tyrosine-protein kinase Lyn (Homo sapiens) (UniProt P07948); assay: Binding affinity to wild-type human partial length LYN (C219 to Q511 residues) expressed in bacterial expression system assessed as residual binding level at 1 uM by Kinomescan method relative to control
# [20] = biological target: 5'-AMP-activated protein kinase catalytic subunit alpha-2 (Homo sapiens) (UniProt P54646); assay: Binding affinity to wild-type human partial length AMPK alpha2 (M1 to E306 residues) expressed in bacterial expression system assessed as residual binding level at 1 uM by Kinomescan method relative to control
# [21] = biological target: Cyclin-dependent kinase 7 (Homo sapiens) (UniProt P50613); assay: Binding affinity to wild-type human full length CDK7 (M1 to L344 residues) expressed in mammalian expression system assessed as residual binding level at 1 uM by Kinomescan method relative to control
# [22] = system: Tyrosine-protein kinase ABL1 (Homo sapiens), P00519 [Y253F]; assay: Binding affinity to human phosphorylated ABL1 Y253F mutant (S229 to K512 residues) expressed in mammalian expression system assessed as residual binding level at 1 uM by Kinomescan method relative to control
# [23] = biological target: Tyrosine-protein kinase SYK (Homo sapiens) (UniProt P43405); assay: Binding affinity to wild-type human partial length SYK (D354 to N635 residues) expressed in bacterial expression system assessed as residual binding level at 1 uM by Kinomescan method relative to control
# [24] = system: Proto-oncogene tyrosine-protein kinase receptor Ret (Homo sapiens), P07949 [M918T]; assay: Binding affinity to human partial length RET M918T mutant (E713 to D1014 residues) expressed in bacterial expression system assessed as residual binding level at 1 uM by Kinomescan method relative to control
compound,measurement,setting,value
CC(C)Nc1sc(C(=O)c2ccc(Cl)s2)c(N)c1C#N,Activity,[1],71%
same,Activity,[2],100%
same,Activity,[3],92%
same,Activity,[4],90%
same,Activity,[5],68%
same,Activity,[6],60%
same,Activity,[7],89%
same,Activity,[8],81%
same,Activity,[9],100%
same,Activity,[10],100%
same,Activity,[11],100%
same,Activity,[12],67%
same,Activity,[13],60%
same,Activity,[14],94%
same,Activity,[15],85%
same,Activity,[16],91%
same,Activity,[17],74%
same,Activity,[18],100%
same,Activity,[19],80%
same,Activity,[20],100%
same,Activity,[21],100%
same,Activity,[22],100%
same,Activity,[23],91%
same,Activity,[24],86%
